Data taken from US20230181536A1, “ANTICANCER COMBINATION THERAPY WITH N-(1-ACRYLOYL-AZETIDIN-3-YL)-2-((1H-INDAZOL-3-YL)AMINO)METHYL)-1H-IMIDAZOLE-5-CARBOXAMIDE INHIBITOR OF KRAS-G12C” (TAIHO PHARMACEUTICAL CO., LTD., priority 2020, published 2023).

Molecular target: T1, KRAS G12C (Homo sapiens, UniProt P01116, G12C)
T1 construct: KRAS G12C (amino acid region: 1-169)
Assay: Inhibitory activity on the KRAS G12C nucleotide (GDP-GTP) exchange reaction
Type: biochemical
Details: Bodipy FL GDP-bound KRAS G12C 25 nM; preincubation at 25° C. for 4 hours; SOS1 100 nM, GppNHp 1 μM, reaction for 30 minutes
Summary of the method: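 Bodipy FL-GDP-loaded KRAS G12C (aa 1-169, 25 nM) preincubated with compound 4 h at 25 °C in pH 7.5 Tris buffer, 5% DMSO; exchange started with SOS1 (aa 564-1049, 100 nM) and 1 μM GppNHp for 30 min. Fluorescence change (ex 485/em 520 nm) normalized to DMSO and no-GppNHp controls; IC50 calculated.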

T1 sequence (P01116 1-169 isoform P01116-2 G12C): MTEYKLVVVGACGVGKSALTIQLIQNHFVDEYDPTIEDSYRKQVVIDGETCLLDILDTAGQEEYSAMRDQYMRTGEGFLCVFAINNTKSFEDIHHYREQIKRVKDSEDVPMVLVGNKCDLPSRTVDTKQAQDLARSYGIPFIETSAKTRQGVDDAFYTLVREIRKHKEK

| Compound | IC50 [nM] |
| --- | --- |
| C=CC(=O)N1C[C@H](NC(=O)c2c(C)nc(CNc3n[nH]c4cc(Cl)c(C(C)(C)C)cc34)n2C)[C@@H](C)C1 [Example 60, N-((3R,4S)-1-acryloyl-4-methylpyrrolidin-3-yl)-2-(((5-(tert-butyl)-6-chloro-1H-indazol-3-yl)amino)methyl)-1,4-dimethyl-1H-imidazole-5-carboxamide] | 1500 |
| C=CC(=O)N1C[C@H](NC(=O)c2c(C)nc(CNc3n[nH]c4cc(Cl)c(C(C)(C)C)cc34)n2C)[C@H](OC)C1 [Example 61, N-((3S,4R)-1-acryloyl-4-methoxypyrrolidin-3-yl)-2-(((5-(tert-butyl)-6-chloro-1H-indazol-3-yl)amino)methyl)-1,4-dimethyl-1H-imidazole-5-carboxamide] | 210 |
| C=CC(=O)N1C[C@H](NC(=O)c2c(C)nc(CNc3n[nH]c4cc(Cl)c(C(C)(C)C)cc34)n2C)[C@@H](O)C1 [Example 62, N-((3S,4S)-1-acryloyl-4-hydroxypyrrolidin-3-yl)-2-(((5-(tert-butyl)-6-chloro-1H-indazol-3-yl)amino)methyl)-1,4-dimethyl-1H-imidazole-5-carboxamide] | 96 |
| C=CC(=O)N1C[C@H](NC(=O)c2c(C)nc(CNc3n[nH]c4cc(Cl)c(C(C)(C)C)cc34)n2C)[C@@H](OC)C1 [Example 63, N-((3S,4S)-1-acryloyl-4-methoxypyrrolidin-3-yl)-2-(((5-(tert-butyl)-6-chloro-1H-indazol-3-yl)amino)methyl)-1,4-dimethyl-1H-imidazole-5-carboxamide] | 84 |
| C=CC(=O)N1C[C@H](NC(=O)c2c(C)nc(CNc3n[nH]c4cc(Cl)c(C(C)(C)C)cc34)n2C)[C@@H](F)C1 [Example 64, N-((3S,4S)-1-acryloyl-4-fluoropyrrolidin-3-yl)-2-(((5-(tert-butyl)-6-chloro-1H-indazol-3-yl)amino)methyl)-1,4-dimethyl-1H-imidazole-5-carboxamide] | 13 |
| C=CC(=O)N1C[C@@H](CC#N)[C@@H](NC(=O)c2c(C)nc(CNc3n[nH]c4cc(Cl)c(C(C)(C)C)cc34)n2C)C1 [Example 65, N-((3R,4R)-1-acryloyl-4-(cyanomethyl)pyrrolidin-3-yl)-2-(((5-(tert-butyl)-6-chloro-1H-indazol-3-yl)amino)methyl)-1,4-dimethyl-1H-imidazole-5-carboxamide] | 19 |
| C=CC(=O)N1C[C@@H](CF)[C@@H](NC(=O)c2c(C)nc(CNc3n[nH]c4cc(Cl)c(C(C)(C)C)cc34)n2C)C1 [Example 66, N-((3R,4R)-1-acryloyl-4-(fluoromethyl)pyrrolidin-3-yl)-2-(((5-(tert-butyl)-6-chloro-1H-indazol-3-yl)amino)methyl)-1,4-dimethyl-1H-imidazole-5-carboxamide] | 20 |
| C=CC(=O)N1C[C@@H](COC)[C@@H](NC(=O)c2c(C)nc(CNc3n[nH]c4cc(Cl)c(C(C)(C)C)cc34)n2C)C1 [Example 67, N-((3R,4R)-1-acryloyl-4-(methoxymethyl)pyrrolidin-3-yl)-2-(((5-(tert-butyl)-6-chloro-1H-indazol-3-yl)amino)methyl)-1,4-dimethyl-1H-imidazole-5-carboxamide] | 24 |
| C=CC(=O)N1C[C@@H](CN(C)C)[C@@H](NC(=O)c2c(C)nc(CNc3n[nH]c4cc(Cl)c(C(C)(C)C)cc34)n2C)C1 [Example 68, N-((3R,4R)-1-acryloyl-4-((dimethylamino)methyl)pyrrolidin-3-yl)-2-(((5-(tert-butyl)-6-chloro-1H-indazol-3-yl)amino)methyl)-1,4-dimethyl-1H-imidazole-5-carboxamide] | 99 |
| C=CC(=O)N1C[C@@H](CC)[C@@H](NC(=O)c2c(C)nc(CNc3n[nH]c4cc(Cl)c(C(C)(C)C)cc34)n2C)C1 [Example 69, N-((3R,4R)-1-acryloyl-4-ethylpyrrolidin-3-yl)-2-(((5-(tert-butyl)-6-chloro-1H-indazol-3-yl)amino)methyl)-1,4-dimethyl-1H-imidazole-5-carboxamide] | 6650 |
| C=CC(=O)N1C[C@H](NC(=O)c2c(C(F)F)nc(CNc3n[nH]c4cc(Cl)c(C(C)(C)C)cc34)n2C)[C@@H](F)C1 [Example 70, N-((3S,4S)-1-acryloyl-4-fluoropyrrolidin-3-yl)-2-(((5-(tert-butyl)-6-chloro-1H-indazol-3-yl)amino)methyl)-4-(difluoromethyl)-1-methyl-1H-imidazole-5-carboxamide] | 79 |
| C=CC(=O)N1C[C@@H](C)[C@@H](NC(=O)c2c(C(F)F)nc(CNc3n[nH]c4cc(Cl)c(C(C)(C)C)cc34)n2C)C1 [Example 71, N-((3R,4R)-1-acryloyl-4-methylpyrrolidin-3-yl)-2-(((5-(tert-butyl)-6-chloro-1H-indazol-3-yl)amino)methyl)-4-(difluoromethyl)-1-methyl-1H-imidazole-5-carboxamide] | 117 |
| C=CC(=O)N1CC[C@@H](NC(=O)c2c(F)nc(CNc3n[nH]c4cc(Cl)c(C(C)(C)C)cc34)n2C)C1 [Example 72, (R)-N-(1-acryloylpyrrolidin-3-yl)-2-(((5-(tert-butyl)-6-chloro-1H-indazol-3-yl)amino)methyl)-4-fluoro-1-methyl-1H-imidazole-5-carboxamide] | 71 |
| C=CC(=O)N1CC[C@@H](NC(=O)c2c(Cl)nc(CNc3n[nH]c4cc(Cl)c(C(C)(C)C)cc34)n2C)C1 [Example 73, (R)-N-(1-acryloylpyrrolidin-3-yl)-2-(((5-(tert-butyl)-6-chloro-1H-indazol-3-yl)amino)methyl)-4-chloro-1-methyl-1H-imidazole-5-carboxamide] | 52 |
| C=CC(=O)N1C[C@@H](C)[C@@H](NC(=O)c2c(F)nc(CNc3n[nH]c4cc(Cl)c(C(C)(C)C)cc34)n2C)C1 [Example 74, N-((3R,4R)-1-acryloyl-4-methylpyrrolidin-3-yl)-2-(((5-(tert-butyl)-6-chloro-1H-indazol-3-yl)amino)methyl)-4-fluoro-1-methyl-1H-imidazole-5-carboxamide] | 36 |
| C=CC(=O)N1C[C@H](NC(=O)c2c(F)nc(CNc3n[nH]c4cc(Cl)c(C(C)(C)C)cc34)n2C)[C@@H](F)C1 [Example 75, N-((3S,4S)-1-acryloyl-4-fluoropyrrolidin-3-yl)-2-(((5-(tert-butyl)-6-chloro-1H-indazol-3-yl)amino)methyl)-4-fluoro-1-methyl-1H-imidazole-5-carboxamide] | 16 |
| C=CC(=O)N1C[C@H](NC(=O)c2c(Cl)nc(CNc3n[nH]c4cc(Cl)c(C(C)(C)C)cc34)n2C)[C@@H](F)C1 [Example 76, N-((3S,4S)-1-acryloyl-4-fluoropyrrolidin-3-yl)-2-(((5-(tert-butyl)-6-chloro-1H-indazol-3-yl)amino)methyl)-4-chloro-1-methyl-1H-imidazole-5-carboxamide] | 13 |
| C=CC(=O)N1CC[C@@H](N(C)C(=O)c2cnc(CNc3n[nH]c4cc(Cl)c(C(C)(C)C)cc34)n2C)C1 [Example 77, (R)-N-(1-acryloylpyrrolidin-3-yl)-2-(((5-(tert-butyl)-6-chloro-1H-indazol-3-yl)amino)methyl)-N,1-dimethyl-1H-imidazole-5-carboxamide] | 142 |
| C=CC(=O)N1C[C@@H](C)[C@@H](NC(=O)c2c(Cl)nc(CNc3n[nH]c4cc(Cl)c(C(C)(C)C)cc34)n2C)C1 [Example 78, N-((3R,4R)-1-acryloyl-4-methylpyrrolidin-3-yl)-2-(((5-(tert-butyl)-6-chloro-1H-indazol-3-yl)amino)methyl)-4-chloro-1-methyl-1H-imidazole-5-carboxamide] | 20 |
| Cc1nc(CNc2n[nH]c3cc(Cl)c(C(C)(C)C)cc23)n(C(C)C)c1C(=O)NC1CN(C(=O)/C=C/CN2CCCCC2)C1 [Example 79, (E)-2-(((5-(tert-butyl)-6-chloro-1H-indazol-3-yl)amino)methyl)-1-isopropyl-4-methyl-N-(1-(4-(piperidin-1-yl)but-2-enoyl)azetidin-3-yl)-1H-imidazole-5-carboxamide] | 122 |
| Cc1nc(CNc2n[nH]c3cc(Cl)c(C(C)(C)C)cc23)n(C)c1C(=O)NC1CN(C(=O)/C=C/CN(C)C)C1 [Example 80, (E)-2-(((5-(tert-butyl)-6-chloro-1H-indazol-3-yl)amino)methyl)-N-(1-(4-(dimethylamino)but-2-enoyl)azetidin-3-yl)-1,4-dimethyl-1H-imidazole-5-carboxamide] | 63 |
| C/C=C/C(=O)N1CC(NC(=O)c2c(C)nc(CNc3n[nH]c4cc(Cl)c(C(C)(C)C)cc34)n2C(C)C)C1 [Example 81, (E)-N-(1-(but-2-enoyl)azetidin-3-yl)-2-(((5-(tert-butyl)-6-chloro-1H-indazol-3-yl)amino)methyl)-1-isopropyl-4-methyl-1H-imidazole-5-carboxamide] | 2630 |
| CC#CC(=O)N1CC(NC(=O)c2c(C)nc(CNc3n[nH]c4cc(Cl)c(C(C)(C)C)cc34)n2C(C)C)C1 [Example 82, N-(1-(buty-2-noyl)azetidin-3-yl)-2-(((5-(tert-butyl)-6-chloro-1H-indazol-3-yl)amino)methyl)-1-isopropyl-4-methyl-1H-imidazole-5-carboxamide] | 209 |
| Cc1nc(CNc2n[nH]c3cc(Cl)c(C(C)(C)C)cc23)n(C(C)C)c1C(=O)NC1CN(C(=O)/C=C\Cl)C1 [Example 83, (Z)-2-(((5-(tert-butyl)-6-chloro-1H-indazol-3-yl)amino)methyl)-N-(1-(3-chloroacryloyl)azetidin-3-yl)-1-isopropyl-4-methyl-1H-imidazole-5-carboxamide] | 2350 |
| CC(C)n1c(CNc2n[nH]c3cc(Cl)c(C(C)(C)C)cc23)nc(C(F)F)c1C(=O)NC1CN(C(=O)/C=C/CN(C)C)C1 [Example 84, (E)-2-(((5-(tert-butyl)-6-chloro-1H-indazol-3-yl)amino)methyl)-4-(difluoromethyl)-N-(1-(4-(dimethylamino)but-2-enoyl)azetidin-3-yl)-1-isopropyl-1H-imidazole-5-carboxamide] | 63 |
